In patent publication US7122173B2, “Agent for the treatment of bladder irritative symptoms accompanied by benign prostatic hyperplasia” (Kyowa Hakko Kogyo Co., Ltd., priority 2001, dated 2006):

Test system: slowly-inactivating A-type K^+ channel
Assay: Voltage clamp, slowly-inactivating A-type K+ currents (HP −90 mV) in unidentified DRG neurons
Assay type: cell-based, rat
Settings: for K+ current HP: −90 mV (slowly-inactivating A-type), relative value (before drug = 1): unidentified DRG neurons
Experimental: Experiments were performed on adult female Sprague Dawley rats. First and second series of the experiments were performed, respectively, in unidentified DRG neurons and a specific population of DRG neurons innervating the urinary bladder. The population of DRG neurons that innervate the urinary bladder were labeled by retrograde axonal transport of the fluorescent dye, Fast Blue (4% w/v) (Polyloy, Gross Umstadt, Germany), injected into the wall of the bladder in halothane-anesthetized animals 7 days before the dissociation. The dye was injected with a 28 gauge needle at three to six sites on the dorsal surface of the organ (5–6 μL per site, total volume of 20–30 μL). Each injection site was washed with saline to minimize contamination of adjacent organs with the dye.
Freshly dissociated neurons from DRG were prepared from halothane-anesthetized animals. L6 and S1 DRG were dissected from animals and then dissociated in a shaking bath for 25 minutes at 35° C. with 5 mL DMEM (Sigma) containing 0.3 mg/mL trypsin (Type 3, Sigma), 1 mg/mL collagenase (Type 1, Sigma), and 0.1 mg/mL deoxyribonuclease (Type 4, Sigma). Trypsin inhibitor (Type 2a, Sigma) was then added thereto to neutralize the activity of trypsin. Individual DRG cell bodies were isolated by trituration and then plated on a poly-L-lysine-coated 35 mm Petri dishes.
Dye-labeled primary afferent neurons that innervate the urinary bladder were identified using an inverted phase-contrast microscope (Nikon, Tokyo, Japan) with fluorescent attachments (UV-1A filter; excitation wavelength, 365 nm). Gigaohm-seal whole-cell recordings were performed at room temperature (20–22° C.) on each labeled neuron in a culture dish that usually contained three to seven labeled cells among a few hundred unlabeled neurons. The internal solution contained (in mmol/L): KCl 140, CaCl2 1, MgCl2 2, EGTA 11, HEPES 10, Mg-ATP 2, and Tris-GTP 0.4 adjusted to pH 7.4 with KOH. Patch electrodes had resistances of 1–4 M Ω when filled with the internal solution. Neurons were superfused at a flow rate of 1.5 mL/minutes with an external solution containing (in mmol/L): NaCl 150, KCl 5, CaCl2 2.5, MgCl2 1, HEPES 10, and D-glucose 10, adjusted to pH 7.4 with NaOH. All recordings were made with an Axopatch-1D patch-clamp amplifier (Axon Instruments, Foster City, Calif.), and data were acquired and analyzed by PCLAMP software (Axon Instruments).
In voltage-clamp recordings, outward K^+ currents and inward Na^+ currents were measured. For the isolation of K^+ currents, the external solution was changed to one containing (in mmol/L): choline-Cl 150, KOH 5, CaCl2 0.03, HEPES 10, Mg(OH)2 3, and D-glucose 10, adjusted to pH 7.4 with HCl.
In first series of experiments using unidentified DRG neurons, outward K^+ currents were evoked by voltage steps to +60 mV, 800 ms long from a holding potentials of −90 mV, this was followed by a 1-second conditioning pre-pulse to −20 mV followed by a second pulse to +60 mV, identical to the first in the sequence. In the second series of experiments using Fast Blue-labeled bladder afferent neurons, slowly-inactivating A-type K^+ currents were isolated by subtraction of outward K^+ currents activated from a holding potential of −40 mV (on the condition of inactivation of the majority of slowly-inactivating A-type K^+ currents) from those activated from a holding potential of −120 mV (on the condition of full activation of slowly-inactivating A-type K^+ currents). A compound was added cumulatively, starting with a lower concentration. Currents were measured at the maximum (peak) and normalized to control (before addition of the compound).
The currents at a holding potential (HP) of −90 mV are results of the measurement of slowly-inactivating A-type K^+ currents, and the currents at an HP value of −20 mV are results of the measurement of delayed rectifier K^+ currents. […]

C[C@](O)(C(=O)Nc1cccc2c1C(=O)c1sccc1CS2(=O)=O)C(F)(F)F [Compound 1, (S)-(+)-N-(5,5-dioxido-10-oxo-4,10-dihydrothieno[3,2-c][1]benzothiepin-9-yl)-3,3,3-trifluoro-2-hydroxy-2-methylpropanamide]
K+ current HP: −90 mV, relative value (before drug = 1) (Compound 1 1.0 × 10^−5 mol/L, in the presence of 5 μmol/L verapamil): 0.99 ± 0.02 | K+ current HP: −90 mV, relative value (before drug = 1) (Compound 1 1.0 × 10^−5 mol/L, in the presence of 20 mmol/L tetraethylammonium): 1.19 ± 0.01 | K+ current HP: −90 mV (slowly-inactivating A-type), relative value (before drug = 1) (Compound 1 1.0 × 10^−5 mol/L): 0.96 ± 0.05 | K+ current HP: −90 mV, relative value (before drug = 1) (Compound 1 1.0 × 10^−6 mol/L, in the presence of 5 μmol/L verapamil): 1.11 ± 0.03 | K+ current HP: −90 mV, relative value (before drug = 1) (Compound 1 1.0 × 10^−6 mol/L, in the presence of 20 mmol/L tetraethylammonium): 1.19 ± 0.05 | K+ current HP: −90 mV (slowly-inactivating A-type), relative value (before drug = 1) (Compound 1 1.0 × 10^−6 mol/L): 1.06 ± 0.02 | K+ current HP: −90 mV, relative value (before drug = 1) (Compound 1 1.0 × 10^−7 mol/L, in the presence of 5 μmol/L verapamil): 1.13 ± 0.02 | K+ current HP: −90 mV, relative value (before drug = 1) (Compound 1 1.0 × 10^−7 mol/L, in the presence of 20 mmol/L tetraethylammonium): 1.10 ± 0.01 | K+ current HP: −90 mV (slowly-inactivating A-type), relative value (before drug = 1) (Compound 1 1.0 × 10^−7 mol/L): 1.12 ± 0.03 | K+ current HP: −90 mV (slowly-inactivating A-type), relative value (before drug = 1) (Compound 1 1.0 × 10^−8 mol/L): 0.99 ± 0.08 | K+ current HP: −90 mV (slowly-inactivating A-type), relative value (before drug = 1) (Compound 1 2.5 × 10^−8 mol/L): 1.07 ± 0.03 | K+ current HP: −90 mV, relative value (before drug = 1) (Compound 1 5.0 × 10^−4 mol/L, in the presence of 5 μmol/L verapamil): 0.61 ± 0.05 | K+ current HP: −90 mV, relative value (before drug = 1) (Compound 1 5.0 × 10^−4 mol/L, in the presence of 20 mmol/L tetraethylammonium): 0.29 ± 0.02 | K+ current HP: −90 mV, relative value (before drug = 1) (Compound 1 5.0 × 10^−4 mol/L, in the presence of 60 mmol/L tetraethylammonium): 0.56 ± 0.05 | K+ current HP: −90 mV, relative value (before drug = 1) (Compound 1 5.0 × 10^−5 mol/L, in the presence of 5 μmol/L verapamil): 0.94 ± 0.02 | K+ current HP: −90 mV, relative value (before drug = 1) (Compound 1 5.0 × 10^−5 mol/L, in the presence of 20 mmol/L tetraethylammonium): 0.91 ± 0.04 | K+ current HP: −90 mV, relative value (before drug = 1) (Compound 1 5.0 × 10^−5 mol/L, in the presence of 60 mmol/L tetraethylammonium): 1.15 ± 0.08 | K+ current HP: −90 mV (slowly-inactivating A-type), relative value (before drug = 1) (Compound 1 5.0 × 10^−5 mol/L): 0.83 ± 0.09 | K+ current HP: −90 mV, relative value (before drug = 1) (Compound 1 5.0 × 10^−6 mol/L, in the presence of 5 μmol/L verapamil): 1.02 ± 0.03 | K+ current HP: −90 mV, relative value (before drug = 1) (Compound 1 5.0 × 10^−6 mol/L, in the presence of 20 mmol/L tetraethylammonium): 1.16 ± 0.03 | K+ current HP: −90 mV, relative value (before drug = 1) (Compound 1 5.0 × 10^−6 mol/L, in the presence of 60 mmol/L tetraethylammonium): 1.14 ± 0.05 | K+ current HP: −90 mV, relative value (before drug = 1) (Compound 1 5.0 × 10^−7 mol/L, in the presence of 5 μmol/L verapamil): 1.17 ± 0.03 | K+ current HP: −90 mV, relative value (before drug = 1) (Compound 1 5.0 × 10^−7 mol/L, in the presence of 20 mmol/L tetraethylammonium): 1.15 ± 0.04 | K+ current HP: −90 mV, relative value (before drug = 1) (Compound 1 5.0 × 10^−7 mol/L, in the presence of 60 mmol/L tetraethylammonium): 1.11 ± 0.03 | K+ current HP: −90 mV (slowly-inactivating A-type), relative value (before drug = 1) (Compound 1 5.0 × 10^−7 mol/L): 1.15 ± 0.03 | K+ current HP: −90 mV, relative value (before drug = 1) (Compound 1 5.0 × 10^−8 mol/L, in the presence of 5 μmol/L verapamil): 1.03 ± 0.02 | K+ current HP: −90 mV, relative value (before drug = 1) (Compound 1 5.0 × 10^−8 mol/L, in the presence of 20 mmol/L tetraethylammonium): 1.08 ± 0.02 | K+ current HP: −90 mV, relative value (before drug = 1) (Compound 1 5.0 × 10^−8 mol/L, in the presence of 60 mmol/L tetraethylammonium): 1.08 ± 0.02 | K+ current HP: −90 mV (slowly-inactivating A-type), relative value (before drug = 1) (Compound 1 5.0 × 10^−8 mol/L): 1.07 ± 0.02 | K+ current HP: −90 mV, relative value (before drug = 1) (Compound 1 5.0 × 10^−9 mol/L, in the presence of 20 mmol/L tetraethylammonium): 1.02 ± 0.02 | K+ current HP: −90 mV (slowly-inactivating A-type), relative value (before drug = 1) (Compound 1 5.0 × 10^−9 mol/L): 1.01 ± 0.03 | Peak compound concentration for increase of slowly-inactivating A-type K^+ currents (unidentified DRG cells, HP −90 mV): 1e-07 to 5e-07 mol/L
